Measurements from patent publication US12377060B2, “Methods and compositions for preventing or treating tissue calcification” (Epizon Pharma, Inc., priority 2018, dated 2025).

Legend:
[1] = system: ESRD subjects on stable hemodialysis; test: Example 1: contemplated administration of MK-7 and/or MKH2-7 to ESRD subjects on stable hemodialysis, biomarkers of tissue calcification; format: in vivo, human; conditions: 10 mg, 25 mg or 50 mg once daily orally
Method: This example describes the administration of MK-7 and/or MKH2-7 to a subject with ESRD and/or on stable hemodialysis. It is contemplated that administration of MK-7 and/or MKH2-7 will result in a change in aortic compliance (via plethysmography), vascular calcification and certain biomarker levels indicative of slowing the progression of, arresting, or reversing tissue calcification.
ESRD subjects on stable hemodialysis orally receive MK-7 and/or MKH2-7 at 10 mg, 25 mg or 50 mg once daily for least 2 weeks, 4 weeks, 6 weeks, 8 weeks, 3 months, 6 months, 1 year, or indefinitely. The dosage form is a 10 mg or 25 mg soft-gel capsule. Two 25 mg capsules are administered once daily to the 50 mg dosage cohort.
Coronary arterial calcium scores (CAC) are used to estimate the extent of calcification of thoracic arteries. A high CAC score is indicative of calcification, and treatment has the aim of arresting the long term increase in CAC score, or reversing it, or slowing the rate of increase. Aortic plethysmography also is used to measure arterial compliance, which decreases as calcification increases. Pulse wave velocity (PWV) also is measured to assess arterial compliance. The foregoing measures are useful in estimating the utility of treatments intended to prevent, slow the progression of, arrest or reverse vascular calcification. These measurements are used pre- and post-treatment with MK-7 and/or MKH2-7 to assess treatment value.
Further, several biomarkers are assessed to determine the efficacy of MK-7 and/or MKH2-7 at the three dose levels. Exemplary biomarkers include PIVKA-II; uncarboxylated and total Matrix Gla Protein (MGP); uncarboxylated, carboxylated and total osteocalcin protein; uncarboxylated, carboxylated and total Protein C, osteoprotegerin, Fetuin A, and hs-CRP. Blood samples are obtained to measure the biomarkers, most conveniently during patient visits for hemodialysis.
It is contemplated that administration of MK-7 and/or MKH2-7 can result in (i) an increase in […], osteoprotegerin, or Fetuin A, which is indicative of slowing the progression of, arresting or reversing tissue calcification, (ii) a decrease in uncarboxylated MGP, uncarboxylated osteocalcin, and/or uncarboxylated Protein C, which is indicative of slowing the progression of, arresting or reversing tissue calcification, and/or (iii) a decrease in hs-CRP, which is indicative of slowing the progression of, arresting or reversing tissue calcification and/or reduced inflammation.
It is contemplated that, following the daily administration of 10 mg, 25 mg or 50 mg MK-7 and/or MKH2-7, at least one of PIVKA-II, under-carboxylated Matrix Gla Protein (MGP), uncarboxylated osteocalcin protein, uncarboxylated Protein C, osteoprotegerin, Fetuin A, and hs-CRP will show a change indicative of slowing the progression of, arresting or reversing tissue calcification.

osteocalcin = conditions: 100-200 μg/d for 4 to 12 weeks; cited from earlier work

Structure (SMILES): CC(C)=CCC/C(C)=C/CC/C(C)=C/CC/C(C)=C/CC/C(C)=C/CC/C(C)=C/CC/C(C)=C/CC1=C(C)C(=O)c2ccccc2C1=O [MK-7, 2-[(2E,6E,10E,14E,18E,22E)-3,7,11,15,19,23,27-heptamethyloctacosa-2,6,10,14,18,22,26-heptaenyl]-3-methylnaphthalene-1,4-dione]
- change in Fetuin A [1]: increase
- change in hs-CRP [1]: decrease
- change in osteoprotegerin [1]: increase
- change in uncarboxylated MGP [1]: decrease
- change in uncarboxylated Protein C [1]: decrease
- change in uncarboxylated osteocalcin [1]: decrease
- ratio of carboxylated to undercarboxylated osteocalcin (osteocalcin): significantly and in a dose-dependent manner

Structure (SMILES): CC(C)=CCC/C(C)=C/CC/C(C)=C/CC/C(C)=C/CC/C(C)=C/CC/C(C)=C/CC/C(C)=C/Cc1c(C)c(O)c2ccccc2c1O [MKH2-7, 2-[(2E,6E,10E,14E,18E,22E)-3,7,11,15,19,23,27-heptamethyloctacosa-2,6,10,14,18,22,26-heptaenyl]-3-methylnaphthalene-1,4-diol]
- change in Fetuin A [1]: increase
- change in hs-CRP [1]: decrease
- change in osteoprotegerin [1]: increase
- change in uncarboxylated MGP [1]: decrease
- change in uncarboxylated Protein C [1]: decrease
- change in uncarboxylated osteocalcin [1]: decrease
